Reference: the NIST ThermoML archive (doi:10.1016/j.jct.2012.01.013)
± gives the expanded uncertainty stated by the source.

Assay: xn = mol fraction of the nth substance listed
Settings: 101 kPa, Liquid; for viscosity: Falling or rolling sphere viscometry; for mass density: Vibrating tube method

CC(=O)[O-].Cn1cc[nH+]c1 [1-methylimidazolium acetate] + CO
Settings	mass density, 293.15 K [kg/m3]	mass density, 298.15 K [kg/m3]	mass density, 303.15 K [kg/m3]	mass density, 308.15 K [kg/m3]	mass density, 313.15 K [kg/m3]	viscosity, 293.15 K [mPa·s]	viscosity, 298.15 K [mPa·s]	viscosity, 303.15 K [mPa·s]	viscosity, 308.15 K [mPa·s]	viscosity, 313.15 K [mPa·s]
x1 = 0.05	841.99 ± 0.77	837.15 ± 0.77	832.29 ± 0.77	827.39 ± 0.77	822.47 ± 0.77	0.818 ± 0.06	0.758 ± 0.06	0.704 ± 0.06	0.657 ± 0.06	0.615 ± 0.06
x1 = 0.1008	880.4 ± 0.64	875.53 ± 0.63	870.63 ± 0.63	865.7 ± 0.63	860.74 ± 0.64	1.049 ± 0.061	0.964 ± 0.061	0.889 ± 0.06	0.822 ± 0.06	0.763 ± 0.06
x1 = 0.1994	936.43 ± 0.49	931.59 ± 0.49	926.72 ± 0.49	921.83 ± 0.49	916.92 ± 0.49	1.568 ± 0.061	1.424 ± 0.061	1.317 ± 0.061	1.189 ± 0.061	1.093 ± 0.061
x1 = 0.2997	974.67 ± 0.35	969.87 ± 0.35	965.05 ± 0.35	960.22 ± 0.36	955.37 ± 0.36	2.134 ± 0.062	1.936 ± 0.062	1.747 ± 0.062	1.585 ± 0.061	1.445 ± 0.061
x1 = 0.4	1002.67 ± 0.28	997.94 ± 0.28	993.18 ± 0.28	988.42 ± 0.28	983.63 ± 0.28	2.806 ± 0.064	2.428 ± 0.063	2.193 ± 0.062	1.991 ± 0.062	1.822 ± 0.062
x1 = 0.4979	1023.14 ± 0.23	1018.47 ± 0.22	1013.77 ± 0.22	1009.07 ± 0.22	1004.35 ± 0.23	3.486 ± 0.066	2.986 ± 0.065	2.672 ± 0.064	2.399 ± 0.063	2.195 ± 0.062
x1 = 0.651	1046.77 ± 0.22	1042.19 ± 0.22	1037.58 ± 0.22	1032.97 ± 0.22	1028.34 ± 0.22	4.706 ± 0.072	4.006 ± 0.068	3.541 ± 0.067	3.133 ± 0.065	2.81 ± 0.064
x1 = 0.8011	1063.57 ± 0.24	1059.06 ± 0.24	1054.54 ± 0.24	1050 ± 0.24	1045.45 ± 0.23	6.119 ± 0.079	5.207 ± 0.074	4.509 ± 0.071	3.927 ± 0.069	3.454 ± 0.067
x1 = 0.9012	1072.29 ± 0.27	1067.83 ± 0.26	–	1058.86 ± 0.26	1054.36 ± 0.26	7.161 ± 0.086	6.065 ± 0.08	5.2 ± 0.075	4.485 ± 0.071	3.912 ± 0.069

CC(=O)[O-].Cn1cc[nH+]c1 [1-methylimidazolium acetate] + O
Settings	mass density, 293.15 K [kg/m3]	mass density, 298.15 K [kg/m3]	mass density, 303.15 K [kg/m3]	mass density, 308.15 K [kg/m3]	mass density, 313.15 K [kg/m3]	viscosity, 293.15 K [mPa·s]	viscosity, 298.15 K [mPa·s]	viscosity, 303.15 K [mPa·s]	viscosity, 308.15 K [mPa·s]	viscosity, 313.15 K [mPa·s]
x1 = 0.0496	1050.26 ± 0.6	1047.88 ± 0.59	1045.35 ± 0.57	1042.68 ± 0.55	1039.87 ± 0.53	2.361 ± 0.074	2.05 ± 0.07	1.797 ± 0.067	1.59 ± 0.065	1.419 ± 0.064
x1 = 0.0999	1080.12 ± 0.33	1076.77 ± 0.3	1073.32 ± 0.29	1069.76 ± 0.28	1066.09 ± 0.29	4.352 ± 0.079	3.682 ± 0.074	3.154 ± 0.069	2.73 ± 0.066	2.363 ± 0.065
x1 = 0.2007	1099.43 ± 0.16	1095.11 ± 0.16	1090.72 ± 0.16	1086.27 ± 0.15	1081.75 ± 0.15	8.567 ± 0.093	7.087 ± 0.084	5.755 ± 0.077	4.731 ± 0.072	4.082 ± 0.069
x1 = 0.2985	1099.75 ± 0.14	1095.2 ± 0.14	1090.61 ± 0.14	1085.97 ± 0.14	1081.29 ± 0.14	11.17 ± 0.1	9.095 ± 0.092	7.498 ± 0.083	6.239 ± 0.076	5.265 ± 0.072
x1 = 0.3986	1096.26 ± 0.15	1091.68 ± 0.15	1087.07 ± 0.15	1082.42 ± 0.15	1077.74 ± 0.15	11.62 ± 0.11	9.434 ± 0.094	7.776 ± 0.084	6.521 ± 0.078	5.535 ± 0.073
x1 = 0.496	1092.17 ± 0.17	1087.6 ± 0.16	1083 ± 0.16	1078.38 ± 0.16	1073.73 ± 0.16	11.27 ± 0.11	9.212 ± 0.093	7.655 ± 0.084	6.419 ± 0.078	5.459 ± 0.073
x1 = 0.6467	1087.46 ± 0.19	1082.93 ± 0.19	1078.39 ± 0.19	1073.83 ± 0.18	1069.26 ± 0.18	10.44 ± 0.1	8.538 ± 0.091	7.137 ± 0.083	6.085 ± 0.077	5.234 ± 0.073
x1 = 0.7954	1083.49 ± 0.22	1079.01 ± 0.22	1074.5 ± 0.22	1069.99 ± 0.22	1065.48 ± 0.21	9.391 ± 0.098	7.858 ± 0.089	6.641 ± 0.081	5.663 ± 0.076	4.895 ± 0.072
x1 = 0.8987	1081.48 ± 0.25	1077.03 ± 0.25	1072.55 ± 0.25	1068.08 ± 0.25	1063.6 ± 0.24	8.655 ± 0.095	7.299 ± 0.087	6.193 ± 0.08	5.304 ± 0.075	4.584 ± 0.072
